{"source": "the kinase profiling compilation of Christmann-Franck et al. (2016)", "assay_in_all_cases": "radiometric filter-binding kinase assay, Kinase HotSpot", "details_in_all_cases": "compound 0.5 µM; ATP 10 µM", "key": {"ACVRL1 (human)": {"target": "ACVRL1 (human) (UniProt P37023)"}, "ADRBK2 (human)": {"target": "ADRBK2 (human) (UniProt P35626)"}, "AURKB (human)": {"target": "AURKB (human) (UniProt Q96GD4)"}, "AURKC (human)": {"target": "AURKC (human) (UniProt Q9UQB9)", "sequence (Q9UQB9 whole entry, looked up)": "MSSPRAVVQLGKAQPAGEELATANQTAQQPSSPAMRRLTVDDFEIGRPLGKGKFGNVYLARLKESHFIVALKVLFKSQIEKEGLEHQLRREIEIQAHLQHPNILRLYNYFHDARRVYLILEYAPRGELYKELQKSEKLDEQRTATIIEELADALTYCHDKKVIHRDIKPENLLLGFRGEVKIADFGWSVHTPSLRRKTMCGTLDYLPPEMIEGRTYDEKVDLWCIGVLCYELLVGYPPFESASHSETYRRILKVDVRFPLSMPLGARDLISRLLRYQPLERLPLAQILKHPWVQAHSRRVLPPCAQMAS"}, "CAMK1 (human)": {"target": "CAMK1 (human) (UniProt Q14012)"}, "CAMK2G (human)": {"target": "CAMK2G (human) (UniProt Q13555)"}, "CDK1 CCNA2 (human)": {"target": "CDK1 CCNA2 (human) (UniProt P06493+P20248)"}, "CHEK1 (human)": {"target": "CHEK1 (human) (UniProt O14757)"}, "CLK2 (human)": {"target": "CLK2 (human) (UniProt P49760)"}, "CSNK1G1 (human)": {"target": "CSNK1G1 (human) (UniProt Q9HCP0)"}, "DAPK1 (human)": {"target": "DAPK1 (human) (UniProt P53355)"}, "DYRK3 (human)": {"target": "DYRK3 (human) (UniProt O43781)"}, "EPHA3 (human)": {"target": "EPHA3 (human) (UniProt P29320)"}, "FGR (human)": {"target": "FGR (human) (UniProt P09769)"}, "FLT1 (human)": {"target": "FLT1 (human) (UniProt P17948)"}, "[1]": {"tested_on": "FLT4 (human), P35916 [Q890H]"}, "HCK (human)": {"target": "HCK (human) (UniProt P08631)", "sequence (P08631 whole entry, looked up)": "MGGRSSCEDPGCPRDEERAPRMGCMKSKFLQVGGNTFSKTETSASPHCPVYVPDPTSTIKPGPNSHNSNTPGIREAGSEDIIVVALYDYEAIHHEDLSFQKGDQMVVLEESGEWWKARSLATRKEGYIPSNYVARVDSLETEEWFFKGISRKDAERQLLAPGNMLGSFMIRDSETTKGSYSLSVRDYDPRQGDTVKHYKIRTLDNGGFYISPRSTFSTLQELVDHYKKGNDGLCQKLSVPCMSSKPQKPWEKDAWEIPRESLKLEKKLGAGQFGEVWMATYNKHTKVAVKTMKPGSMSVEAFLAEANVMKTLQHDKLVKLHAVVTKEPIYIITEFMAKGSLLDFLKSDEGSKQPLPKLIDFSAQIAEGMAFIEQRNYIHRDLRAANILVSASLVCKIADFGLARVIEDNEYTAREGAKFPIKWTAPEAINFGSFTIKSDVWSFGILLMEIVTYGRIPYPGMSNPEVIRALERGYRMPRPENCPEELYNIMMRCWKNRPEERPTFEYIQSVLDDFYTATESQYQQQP"}, "IRAK1 (human)": {"target": "IRAK1 (human) (UniProt P51617)"}, "IRAK4 (human)": {"target": "IRAK4 (human) (UniProt Q9NWZ3)"}, "ITK (human)": {"target": "ITK (human) (UniProt Q08881)"}, "KIT (human)": {"target": "KIT (human) (UniProt P10721)"}, "[2]": {"tested_on": "MAP2K6 (human), P52564 [S207E/T211E]", "sequence (P52564 whole entry S207E/T211E, looked up)": "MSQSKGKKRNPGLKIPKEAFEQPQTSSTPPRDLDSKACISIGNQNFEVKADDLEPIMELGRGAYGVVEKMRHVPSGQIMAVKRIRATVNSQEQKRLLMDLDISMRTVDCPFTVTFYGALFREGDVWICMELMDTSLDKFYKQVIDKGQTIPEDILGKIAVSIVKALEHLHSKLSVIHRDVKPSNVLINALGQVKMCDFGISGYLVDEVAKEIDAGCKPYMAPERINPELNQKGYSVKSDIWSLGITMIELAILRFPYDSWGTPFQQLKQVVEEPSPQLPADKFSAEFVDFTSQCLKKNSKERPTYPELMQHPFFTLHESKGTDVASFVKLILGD"}, "MELK (human)": {"target": "MELK (human) (UniProt Q14680)"}, "MST1R (human)": {"target": "MST1R (human) (UniProt Q04912)", "sequence (Q04912 whole entry, looked up)": "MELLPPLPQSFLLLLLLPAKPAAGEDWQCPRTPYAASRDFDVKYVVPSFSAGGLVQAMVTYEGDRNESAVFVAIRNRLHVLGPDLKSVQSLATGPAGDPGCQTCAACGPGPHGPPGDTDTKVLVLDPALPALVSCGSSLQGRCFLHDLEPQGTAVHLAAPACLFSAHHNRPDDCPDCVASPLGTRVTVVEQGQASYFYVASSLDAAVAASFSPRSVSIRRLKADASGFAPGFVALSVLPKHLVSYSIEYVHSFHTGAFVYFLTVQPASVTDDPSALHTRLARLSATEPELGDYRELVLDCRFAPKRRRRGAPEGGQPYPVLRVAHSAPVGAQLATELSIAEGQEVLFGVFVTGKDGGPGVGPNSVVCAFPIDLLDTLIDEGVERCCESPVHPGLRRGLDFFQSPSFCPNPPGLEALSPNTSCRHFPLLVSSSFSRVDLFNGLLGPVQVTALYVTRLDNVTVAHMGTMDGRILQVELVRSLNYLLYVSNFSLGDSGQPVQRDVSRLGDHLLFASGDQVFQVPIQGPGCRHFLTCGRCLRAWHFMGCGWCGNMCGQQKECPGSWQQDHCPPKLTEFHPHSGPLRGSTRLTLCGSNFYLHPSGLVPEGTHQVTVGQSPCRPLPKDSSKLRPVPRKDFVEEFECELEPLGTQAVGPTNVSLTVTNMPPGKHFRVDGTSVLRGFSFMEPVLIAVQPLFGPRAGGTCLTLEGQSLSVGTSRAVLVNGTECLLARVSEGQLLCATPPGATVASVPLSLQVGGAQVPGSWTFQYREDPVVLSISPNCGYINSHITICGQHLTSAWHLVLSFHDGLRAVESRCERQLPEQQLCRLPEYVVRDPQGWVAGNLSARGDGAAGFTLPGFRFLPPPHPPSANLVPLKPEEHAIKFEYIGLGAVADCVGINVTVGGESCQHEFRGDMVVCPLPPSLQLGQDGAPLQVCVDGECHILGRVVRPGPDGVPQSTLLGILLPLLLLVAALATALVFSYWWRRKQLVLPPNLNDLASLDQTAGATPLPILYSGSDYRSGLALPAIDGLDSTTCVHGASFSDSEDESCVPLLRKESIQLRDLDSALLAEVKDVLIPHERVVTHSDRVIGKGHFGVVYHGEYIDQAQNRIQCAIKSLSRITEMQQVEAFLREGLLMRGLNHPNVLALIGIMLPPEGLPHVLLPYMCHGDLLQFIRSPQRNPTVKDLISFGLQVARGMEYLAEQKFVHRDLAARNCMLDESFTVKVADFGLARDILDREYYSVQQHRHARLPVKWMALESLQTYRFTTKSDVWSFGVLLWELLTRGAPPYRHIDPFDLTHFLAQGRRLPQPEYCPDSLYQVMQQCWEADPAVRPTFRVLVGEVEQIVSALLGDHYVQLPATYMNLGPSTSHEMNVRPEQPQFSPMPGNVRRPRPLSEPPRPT"}, "MYLK (human)": {"target": "MYLK (human) (UniProt Q15746)"}, "NEK2 (human)": {"target": "NEK2 (human) (UniProt P51955)"}, "NEK7 (human)": {"target": "NEK7 (human) (UniProt Q8TDX7)"}, "NLK (human)": {"target": "NLK (human) (UniProt Q9UBE8)"}, "PAK3 (human)": {"target": "PAK3 (human) (UniProt O75914)"}, "PNCK (human)": {"target": "PNCK (human) (UniProt Q6P2M8)"}, "PRKCA (human)": {"target": "PRKCA (human) (UniProt P17252)"}, "PRKCI (human)": {"target": "PRKCI (human) (UniProt P41743)", "sequence (P41743 whole entry, looked up)": "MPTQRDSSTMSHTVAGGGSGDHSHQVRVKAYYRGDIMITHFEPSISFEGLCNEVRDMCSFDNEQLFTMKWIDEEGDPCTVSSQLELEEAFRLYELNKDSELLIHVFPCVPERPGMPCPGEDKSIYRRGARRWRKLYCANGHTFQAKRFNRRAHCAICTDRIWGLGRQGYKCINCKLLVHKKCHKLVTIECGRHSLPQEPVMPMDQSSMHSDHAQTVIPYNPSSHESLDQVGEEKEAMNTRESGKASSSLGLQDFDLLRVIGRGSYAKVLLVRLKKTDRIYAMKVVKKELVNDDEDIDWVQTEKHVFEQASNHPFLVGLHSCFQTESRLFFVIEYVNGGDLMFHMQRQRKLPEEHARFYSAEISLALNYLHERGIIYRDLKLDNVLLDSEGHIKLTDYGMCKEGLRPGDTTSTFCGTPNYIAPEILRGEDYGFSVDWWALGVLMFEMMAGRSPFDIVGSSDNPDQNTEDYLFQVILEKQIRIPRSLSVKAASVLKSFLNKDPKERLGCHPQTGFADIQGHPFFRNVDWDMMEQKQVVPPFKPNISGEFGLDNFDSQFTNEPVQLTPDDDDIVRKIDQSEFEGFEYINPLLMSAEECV"}, "[3]": {"tested_on": "PRKCQ (human), Q04759 [P330L]"}, "PRKCZ (human)": {"target": "PRKCZ (human) (UniProt Q05513)"}, "PTK2B (human)": {"target": "PTK2B (human) (UniProt Q14289)", "sequence (Q14289 whole entry, looked up)": "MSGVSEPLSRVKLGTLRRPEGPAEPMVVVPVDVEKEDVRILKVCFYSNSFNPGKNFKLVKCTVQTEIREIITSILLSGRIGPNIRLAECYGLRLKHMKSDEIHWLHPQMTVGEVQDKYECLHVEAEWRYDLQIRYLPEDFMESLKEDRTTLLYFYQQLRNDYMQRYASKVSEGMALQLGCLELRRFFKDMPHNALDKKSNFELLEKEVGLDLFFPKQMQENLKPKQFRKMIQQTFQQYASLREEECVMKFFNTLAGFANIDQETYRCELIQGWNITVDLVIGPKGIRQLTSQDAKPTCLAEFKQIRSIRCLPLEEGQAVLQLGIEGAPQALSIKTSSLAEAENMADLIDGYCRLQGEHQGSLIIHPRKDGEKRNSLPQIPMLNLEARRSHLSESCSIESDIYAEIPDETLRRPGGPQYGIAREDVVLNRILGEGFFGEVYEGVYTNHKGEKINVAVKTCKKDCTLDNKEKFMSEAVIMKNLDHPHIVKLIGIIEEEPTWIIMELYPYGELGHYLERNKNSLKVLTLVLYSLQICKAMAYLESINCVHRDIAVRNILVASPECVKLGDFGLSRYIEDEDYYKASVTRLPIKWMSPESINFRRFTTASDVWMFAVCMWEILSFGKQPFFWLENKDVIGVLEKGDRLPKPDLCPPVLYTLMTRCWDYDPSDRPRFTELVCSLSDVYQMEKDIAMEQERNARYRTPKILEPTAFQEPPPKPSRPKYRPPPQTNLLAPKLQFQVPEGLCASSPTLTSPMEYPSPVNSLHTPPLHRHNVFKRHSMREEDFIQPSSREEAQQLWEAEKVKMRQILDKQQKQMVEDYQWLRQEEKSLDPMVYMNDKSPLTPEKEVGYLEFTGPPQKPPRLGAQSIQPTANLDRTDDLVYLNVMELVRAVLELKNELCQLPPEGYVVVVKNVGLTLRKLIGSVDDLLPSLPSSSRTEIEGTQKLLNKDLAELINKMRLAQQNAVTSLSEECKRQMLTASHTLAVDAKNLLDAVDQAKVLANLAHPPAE"}, "ROS1 (human)": {"target": "ROS1 (human) (UniProt P08922)"}, "RPS6KA4 KD2 (human)": {"target": "RPS6KA4 KD2 (human) (UniProt O75676)"}, "RPS6KB1 (human)": {"target": "RPS6KB1 (human) (UniProt P23443)"}, "SGK2 (human)": {"target": "SGK2 (human) (UniProt Q9HBY8)"}, "STK25 (human)": {"target": "STK25 (human) (UniProt O00506)", "sequence (O00506 whole entry, looked up)": "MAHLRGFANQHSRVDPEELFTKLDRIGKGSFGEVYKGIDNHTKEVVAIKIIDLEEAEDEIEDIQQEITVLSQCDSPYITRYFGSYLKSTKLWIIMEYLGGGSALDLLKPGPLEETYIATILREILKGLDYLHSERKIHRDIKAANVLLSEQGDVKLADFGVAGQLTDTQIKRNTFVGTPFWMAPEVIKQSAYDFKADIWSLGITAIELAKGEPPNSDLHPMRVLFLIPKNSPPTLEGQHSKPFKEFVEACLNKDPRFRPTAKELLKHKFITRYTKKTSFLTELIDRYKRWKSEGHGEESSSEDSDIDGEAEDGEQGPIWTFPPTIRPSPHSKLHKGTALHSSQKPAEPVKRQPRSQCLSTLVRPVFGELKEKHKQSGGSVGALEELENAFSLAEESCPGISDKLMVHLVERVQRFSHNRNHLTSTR"}, "TYRO3 (human)": {"target": "TYRO3 (human) (UniProt Q06418)"}, "VRK1 (human)": {"target": "VRK1 (human) (UniProt Q99986)", "sequence (Q99986 whole entry, looked up)": "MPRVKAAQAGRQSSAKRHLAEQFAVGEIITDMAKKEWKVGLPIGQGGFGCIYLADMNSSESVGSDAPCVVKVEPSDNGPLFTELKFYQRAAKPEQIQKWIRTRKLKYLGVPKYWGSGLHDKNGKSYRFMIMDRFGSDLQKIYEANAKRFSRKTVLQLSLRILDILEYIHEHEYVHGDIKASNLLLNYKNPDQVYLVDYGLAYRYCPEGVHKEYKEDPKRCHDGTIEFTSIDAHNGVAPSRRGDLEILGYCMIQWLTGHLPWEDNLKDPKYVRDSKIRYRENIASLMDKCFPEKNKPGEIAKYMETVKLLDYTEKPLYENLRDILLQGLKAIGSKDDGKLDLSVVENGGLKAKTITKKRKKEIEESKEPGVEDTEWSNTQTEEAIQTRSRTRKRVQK"}}}
{"smiles": "Cc1nc(-c2ccccc2)c(-c2ccncc2)o1", "values": [{"measurement": "residual activity", "setting": "ACVRL1 (human)", "value": 95.9, "unit": "%"}, {"measurement": "residual activity", "setting": "ADRBK2 (human)", "value": 101, "unit": "%"}, {"measurement": "residual activity", "setting": "AURKB (human)", "value": 97.3, "unit": "%"}, {"measurement": "residual activity", "setting": "AURKC (human)", "value": 95.7, "unit": "%"}, {"measurement": "residual activity", "setting": "CAMK1 (human)", "value": 105, "unit": "%"}, {"measurement": "residual activity", "setting": "CAMK2G (human)", "value": 91.7, "unit": "%"}, {"measurement": "residual activity", "setting": "CDK1 CCNA2 (human)", "value": 94.7, "unit": "%"}, {"measurement": "residual activity", "setting": "CHEK1 (human)", "value": 106, "unit": "%"}, {"measurement": "residual activity", "setting": "CLK2 (human)", "value": 98.2, "unit": "%"}, {"measurement": "residual activity", "setting": "CSNK1G1 (human)", "value": 91.1, "unit": "%"}, {"measurement": "residual activity", "setting": "DAPK1 (human)", "value": 124, "unit": "%"}, {"measurement": "residual activity", "setting": "DYRK3 (human)", "value": 105, "unit": "%"}, {"measurement": "residual activity", "setting": "EPHA3 (human)", "value": 109, "unit": "%"}, {"measurement": "residual activity", "setting": "FGR (human)", "value": 89.7, "unit": "%"}, {"measurement": "residual activity", "setting": "FLT1 (human)", "value": 79.4, "unit": "%"}, {"measurement": "residual activity", "setting": "[1]", "value": 108, "unit": "%"}, {"measurement": "residual activity", "setting": "HCK (human)", "value": 98.9, "unit": "%"}, {"measurement": "residual activity", "setting": "IRAK1 (human)", "value": 124, "unit": "%"}, {"measurement": "residual activity", "setting": "IRAK4 (human)", "value": 107, "unit": "%"}, {"measurement": "residual activity", "setting": "ITK (human)", "value": 97.1, "unit": "%"}, {"measurement": "residual activity", "setting": "KIT (human)", "value": 93.7, "unit": "%"}, {"measurement": "residual activity", "setting": "[2]", "value": 99.3, "unit": "%"}, {"measurement": "residual activity", "setting": "MELK (human)", "value": 105, "unit": "%"}, {"measurement": "residual activity", "setting": "MST1R (human)", "value": 95.9, "unit": "%"}, {"measurement": "residual activity", "setting": "MYLK (human)", "value": 101, "unit": "%"}, {"measurement": "residual activity", "setting": "NEK2 (human)", "value": 116, "unit": "%"}, {"measurement": "residual activity", "setting": "NEK7 (human)", "value": 102, "unit": "%"}, {"measurement": "residual activity", "setting": "NLK (human)", "value": 79.4, "unit": "%"}, {"measurement": "residual activity", "setting": "PAK3 (human)", "value": 100, "unit": "%"}, {"measurement": "residual activity", "setting": "PNCK (human)", "value": 96.6, "unit": "%"}, {"measurement": "residual activity", "setting": "PRKCA (human)", "value": 98.3, "unit": "%"}, {"measurement": "residual activity", "setting": "PRKCI (human)", "value": 101, "unit": "%"}, {"measurement": "residual activity", "setting": "[3]", "value": 120, "unit": "%"}, {"measurement": "residual activity", "setting": "PRKCZ (human)", "value": 103, "unit": "%"}, {"measurement": "residual activity", "setting": "PTK2B (human)", "value": 100, "unit": "%"}, {"measurement": "residual activity", "setting": "ROS1 (human)", "value": 96, "unit": "%"}, {"measurement": "residual activity", "setting": "RPS6KA4 KD2 (human)", "value": 93.7, "unit": "%"}, {"measurement": "residual activity", "setting": "RPS6KB1 (human)", "value": 92.8, "unit": "%"}, {"measurement": "residual activity", "setting": "SGK2 (human)", "value": 105, "unit": "%"}, {"measurement": "residual activity", "setting": "STK25 (human)", "value": 104, "unit": "%"}, {"measurement": "residual activity", "setting": "TYRO3 (human)", "value": 109, "unit": "%"}, {"measurement": "residual activity", "setting": "VRK1 (human)", "value": 98.5, "unit": "%"}]}
{"smiles": "COc1ccc(Cl)cc1NC(=O)Nc1cc(C)nc2ccccc12", "values": [{"measurement": "residual activity", "setting": "ACVRL1 (human)", "value": 98.6, "unit": "%"}, {"measurement": "residual activity", "setting": "ADRBK2 (human)", "value": 103, "unit": "%"}, {"measurement": "residual activity", "setting": "AURKB (human)", "value": 95.9, "unit": "%"}, {"measurement": "residual activity", "setting": "AURKC (human)", "value": 99.9, "unit": "%"}, {"measurement": "residual activity", "setting": "CAMK1 (human)", "value": 91.7, "unit": "%"}, {"measurement": "residual activity", "setting": "CAMK2G (human)", "value": 91.6, "unit": "%"}, {"measurement": "residual activity", "setting": "CDK1 CCNA2 (human)", "value": 104, "unit": "%"}, {"measurement": "residual activity", "setting": "CHEK1 (human)", "value": 96.6, "unit": "%"}, {"measurement": "residual activity", "setting": "CLK2 (human)", "value": 97.7, "unit": "%"}, {"measurement": "residual activity", "setting": "CSNK1G1 (human)", "value": 97.9, "unit": "%"}, {"measurement": "residual activity", "setting": "DAPK1 (human)", "value": 93.3, "unit": "%"}, {"measurement": "residual activity", "setting": "DYRK3 (human)", "value": 106, "unit": "%"}, {"measurement": "residual activity", "setting": "EPHA3 (human)", "value": 99.1, "unit": "%"}, {"measurement": "residual activity", "setting": "FGR (human)", "value": 92, "unit": "%"}, {"measurement": "residual activity", "setting": "FLT1 (human)", "value": 86.2, "unit": "%"}, {"measurement": "residual activity", "setting": "[1]", "value": 100, "unit": "%"}, {"measurement": "residual activity", "setting": "HCK (human)", "value": 101, "unit": "%"}, {"measurement": "residual activity", "setting": "IRAK1 (human)", "value": 91.2, "unit": "%"}, {"measurement": "residual activity", "setting": "IRAK4 (human)", "value": 99.9, "unit": "%"}, {"measurement": "residual activity", "setting": "ITK (human)", "value": 96, "unit": "%"}, {"measurement": "residual activity", "setting": "KIT (human)", "value": 102, "unit": "%"}, {"measurement": "residual activity", "setting": "[2]", "value": 89.9, "unit": "%"}, {"measurement": "residual activity", "setting": "MELK (human)", "value": 106, "unit": "%"}, {"measurement": "residual activity", "setting": "MST1R (human)", "value": 82.4, "unit": "%"}, {"measurement": "residual activity", "setting": "MYLK (human)", "value": 95.7, "unit": "%"}, {"measurement": "residual activity", "setting": "NEK2 (human)", "value": 106, "unit": "%"}, {"measurement": "residual activity", "setting": "NEK7 (human)", "value": 103, "unit": "%"}, {"measurement": "residual activity", "setting": "NLK (human)", "value": 94.5, "unit": "%"}, {"measurement": "residual activity", "setting": "PAK3 (human)", "value": 98.9, "unit": "%"}, {"measurement": "residual activity", "setting": "PNCK (human)", "value": 98.7, "unit": "%"}, {"measurement": "residual activity", "setting": "PRKCA (human)", "value": 132, "unit": "%"}, {"measurement": "residual activity", "setting": "PRKCI (human)", "value": 99.4, "unit": "%"}, {"measurement": "residual activity", "setting": "[3]", "value": 96.7, "unit": "%"}, {"measurement": "residual activity", "setting": "PRKCZ (human)", "value": 99.4, "unit": "%"}, {"measurement": "residual activity", "setting": "PTK2B (human)", "value": 88.9, "unit": "%"}, {"measurement": "residual activity", "setting": "ROS1 (human)", "value": 92.5, "unit": "%"}, {"measurement": "residual activity", "setting": "RPS6KA4 KD2 (human)", "value": 94, "unit": "%"}, {"measurement": "residual activity", "setting": "RPS6KB1 (human)", "value": 96, "unit": "%"}, {"measurement": "residual activity", "setting": "SGK2 (human)", "value": 96.3, "unit": "%"}, {"measurement": "residual activity", "setting": "STK25 (human)", "value": 101, "unit": "%"}, {"measurement": "residual activity", "setting": "TYRO3 (human)", "value": 98.9, "unit": "%"}, {"measurement": "residual activity", "setting": "VRK1 (human)", "value": 84.6, "unit": "%"}]}
